From US10227349B2, “Pyrazolo[1,5-a]pyrimidine compound” (Eisai R&D Management Co., Ltd., priority 2016, dated 2019)

System: mite antigen-induced dermatitis in NC/NgaTndCrlj mice
Experiment: Model for mite antigen-induced atopic dermatitis (dermatitis score)
Assay type: in vivo, mouse
Set-up: key: sum of 5 findings, each 0 = none, 1 mild, 2 moderate, 3 severe
Method: A 4 w/v % SDS solution (0.15 mL/mouse) was first applied to the dorsal region and auricle region of 8-week old male NC/NgaTndCrlj mice (Charles River Laboratories Japan, Inc.) under isoflurane inhalation anesthesia. About 3 hours after the application of the 4 w/v % SDS solution (0.15 mL/mouse), a 1 mL-polypropylene disposable syringe (Terumo Corporation) was filled with Bio stir AD (Biostir Inc.) as a mite antigen ointment which was applied to the dorsal region and auricle region (0.1 mL/mouse). Every 2 or 3 days, the 4 w/v % SDS solution (0.15 mL/mouse) and Biostir AD were applied to a total of 8 times including the initial application by the same method to induce dermatitis. After inducing the dermatitis, the conditions of the skin at the application sites (assessments other than itching behavior) were observed and the dermatitis findings 1) to 5) described below were scored based on the evaluation criteria for the clinical symptoms of human atopic dermatitis. Note that the scoring of the dermatitis findings 1) to 5) has 0 for no symptom, 1 for mild, 2 for moderate and 3 for severe. The dermatitis score of each individual is the total of the dermatitis findings 1) to 5). Grouping (15 mice per group) was carried out randomly so that each group had substantially the same (no statistically significant difference) average dermatitis score (total) and average body weight. For 14 days from the day on which the grouping was carried out, an administration solution containing the test compound (10 mL/kg) was orally administered to the mouse once a day (14 times in total). The administration solution was a 0.5% carboxymethyl cellulose solution containing 10 mmol/L sodium hydroxide and made up into three types of solution having test compound concentrations of 0.3, 1 or 3 mg/mL.

## CO[C@H]1CN(C(=O)c2cc3nc(-c4cc(F)c(Cl)c(F)c4)cc(N(C)c4c(C)cccc4F)n3n2)CC[C@H]1CC(=O)O [Example 10, 2-((3R,4S)-1-(5-(4-chloro-3,5-difluorophenyl)-7-((2-fluoro-6-methylphenyl)(methyl)amino)pyrazolo[1,5-a]pyrimidine-2-carbonyl)-3-methoxypiperidin-4-yl)acetic acid]
3 mg/kg orally once a day, 4 days after starting administration
  Dermatitis score (total of findings 1 to 5): 9.1 ± 0.5
3 mg/kg orally once a day, 7 days after starting administration
  Dermatitis score (total of findings 1 to 5): 8.6 ± 0.7
3 mg/kg orally once a day, 11 days after starting administration
  Dermatitis score (total of findings 1 to 5): 6.7 ± 0.7
3 mg/kg orally once a day, 14 days after starting administration
  Dermatitis score (total of findings 1 to 5): 5.4 ± 0.7
3 mg/kg orally once a day, day 0 (day of grouping)
  Dermatitis score (total of findings 1 to 5): 9.7 ± 0.5
10 mg/kg orally once a day, 4 days after starting administration
  Dermatitis score (total of findings 1 to 5): 8.6 ± 0.9
10 mg/kg orally once a day, 7 days after starting administration
  Dermatitis score (total of findings 1 to 5): 7.7 ± 0.8
10 mg/kg orally once a day, 11 days after starting administration
  Dermatitis score (total of findings 1 to 5): 7.1 ± 1.0
10 mg/kg orally once a day, 14 days after starting administration
  Dermatitis score (total of findings 1 to 5): 5.9 ± 0.9
10 mg/kg orally once a day, day 0 (day of grouping)
  Dermatitis score (total of findings 1 to 5): 9.3 ± 0.6
30 mg/kg orally once a day, 4 days after starting administration
  Dermatitis score (total of findings 1 to 5): 8.7 ± 0.7
30 mg/kg orally once a day, 7 days after starting administration
  Dermatitis score (total of findings 1 to 5): 7.8 ± 0.8
30 mg/kg orally once a day, 11 days after starting administration
  Dermatitis score (total of findings 1 to 5): 6.5 ± 0.8
30 mg/kg orally once a day, 14 days after starting administration
  Dermatitis score (total of findings 1 to 5): 5.0 ± 0.8
30 mg/kg orally once a day, day 0 (day of grouping)
  Dermatitis score (total of findings 1 to 5): 9.3 ± 0.6
